Laboratory results taken from patent US9187472B2 (AbbVie Inc., priority 2012, dated 2015).

Columns and labels:
[1] = target: NAMPT (human, recombinant, C-terminally His-tagged) (Homo sapiens, UniProt P43490); test: Time-Resolved Fluorescence Resonance Energy Transfer (TR-FRET) Binding Assay of NAMPT; settings: without substrates; 6.8 nM NAMPT, 200 nM probe, 3 hours equilibration
Outline: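 11-pt half-log compound series; final 6.8 nM NAMPT, 200 nM OG488 nicotinamide-competitive probe, 1 nM Tb-anti-His Ab, 2% DMSO, HEPES pH 7.5/NaCl/MgCl2/DTT/glycerol buffer. 3 h RT equilibration. Em520/Em495 ratio (Ex 337 nm), control-normalized, 4-parameter fit → IC50.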

NAMPT = NAMPT (Homo sapiens, UniProt P43490); test: TR-FRET Binding Assay of NAMPT with PRPP; settings: with 200 μM PRPP and 2.5 mM ATP; 2 nM NAMPT, 2 nM probe, 16 hours equilibration
NAMPT, sequence (P43490 whole entry): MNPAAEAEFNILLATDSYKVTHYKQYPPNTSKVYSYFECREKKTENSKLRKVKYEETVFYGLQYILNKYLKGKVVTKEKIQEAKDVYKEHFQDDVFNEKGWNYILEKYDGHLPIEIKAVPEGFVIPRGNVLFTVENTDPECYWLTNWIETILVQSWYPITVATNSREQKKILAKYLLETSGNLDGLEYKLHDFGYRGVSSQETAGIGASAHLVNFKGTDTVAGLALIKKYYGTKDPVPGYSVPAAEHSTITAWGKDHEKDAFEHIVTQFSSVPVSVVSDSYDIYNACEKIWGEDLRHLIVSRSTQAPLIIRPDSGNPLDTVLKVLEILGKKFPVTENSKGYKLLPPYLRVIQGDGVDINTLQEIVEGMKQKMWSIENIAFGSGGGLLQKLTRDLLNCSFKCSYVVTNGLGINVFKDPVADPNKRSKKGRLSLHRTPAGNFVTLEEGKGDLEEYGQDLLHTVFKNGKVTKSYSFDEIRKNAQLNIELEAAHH
Outline: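 TR-FRET probe-displacement binding with 2 nM NAMPT, 2 nM probe and 1 nM Tb-anti-His antibody, run in the presence of 200 μM PRPP and 2.5 mM ATP at 2% DMSO. Equilibrated 16 hours before reading so test compounds could undergo enzymatic modification.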

PC3 cells = test: NAMPT Cell Proliferation Assay; format: cell-based; settings: Homo sapiens, PC-3, 120 h, 5 days incubation, cell viability by Cell Titer Glo
Outline: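 PC3 cells were plated at 500 cells/well in RPMI with 10% heat-inactivated FBS, left to attach overnight, then given compounds in 10-fold dilutions from 10 μM to 1×10^−5 μM. After 5 days at 37° C and 5% CO2, viability was read by luminescence and IC50s came from sigmoidal fits of percent inhibition.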

NAMPT (human, recombinant, C-terminally His-tagged), sequence (P43490 whole entry): as above

Row | IC50 [1] [nM] | IC50 (NAMPT) [nM] | IC50 (PC3 cells) [nM] | SMILES
1 | 28.5 | 0.799 | 1.65 | COc1cccc(C(=O)N2CCC(c3ccc(C(=O)NCc4ccn5ccnc5c4)s3)C2)c1 (stereo not drawn) [Example 759, N-(imidazo[1,2-a]pyridin-7-ylmethyl)-5-[1-(3-methoxybenzoyl)pyrrolidin-3-yl]thiophene-2-carboxamide]
2 | 28.9 | 0.71 | 1.19 | COc1ccccc1C(=O)N1CCC(c2ccc(C(=O)NCc3ccn4ccnc4c3)s2)C1 (stereo not drawn) [Example 760, N-(imidazo[1,2-a]pyridin-7-ylmethyl)-5-[1-(2-methoxybenzoyl)pyrrolidin-3-yl]thiophene-2-carboxamide]
3 | 94.4 | 0.394 | 27.7 | O=C(NCc1ccn2ccnc2c1)c1ccc(C2CCN(C(=O)Cc3cccc(F)c3)C2)s1 (stereo not drawn) [Example 761, 5-{1-[(3-fluorophenyl)acetyl]pyrrolidin-3-yl}-N-(imidazo[1,2-a]pyridin-7-ylmethyl)thiophene-2-carboxamide]
4 | 30.1 | 0.506 | 1.12 | O=C(NCc1ccn2ccnc2c1)c1ccc(C2CCN(C(=O)c3cccc(F)c3)C2)s1 (stereo not drawn) [Example 762, 5-[1-(3-fluorobenzoyl)pyrrolidin-3-yl]-N-(imidazo[1,2-a]pyridin-7-ylmethyl)thiophene-2-carboxamide]
5 | 48.5 | 0.478 | 2.31 | O=C(NCc1ccn2ccnc2c1)c1ccc(C2CCN(C(=O)c3ccc(F)cc3)C2)s1 (stereo not drawn) [Example 763, 5-[1-(4-fluorobenzoyl)pyrrolidin-3-yl]-N-(imidazo[1,2-a]pyridin-7-ylmethyl)thiophene-2-carboxamide]
6 | 135 | 0.465 | 68.7 | O=C(NCc1ccn2ccnc2c1)c1ccc(C2CCN(C(=O)Cc3cc(F)cc(F)c3)C2)s1 (stereo not drawn) [Example 764, 5-{1[(3,5-difluorophenyl)acetyl]pyrrolidin-3-yl}-N-(imidazo[1,2-a]pyridin-7-ylmethyl)thiophene-2-carboxamide]
7 | 36.5 | 0.782 | 2.91 | O=C(NCc1ccn2ccnc2c1)c1ccc(C2CCN(C(=O)Cc3ccccc3F)C2)s1 (stereo not drawn) [Example 765, 5-{1-[(2-fluorophenyl)acetyl]pyrrolidin-3-yl}-N-(imidazo[1,2-a]pyridin-7-ylmethyl)thiophene-2-carboxamide]
8 | 61.5 | 0.581 | 6.36 | N#Cc1ccc(C(=O)N2CCC(c3ccc(C(=O)NCc4ccn5ccnc5c4)s3)C2)cc1 (stereo not drawn) [Example 766, 5-[1-(4-cyanobenzoyl)pyrrolidin-3-yl]-N-(imidazo[1,2-a]pyridin-7-ylmethyl)thiophene-2-carboxamide]
9 | 265 | 0.64 | 67.2 | CC1(C(=O)N2CCC(c3ccc(C(=O)NCc4ccn5ccnc5c4)s3)C2)COC1 (stereo not drawn) [Example 767, N-(imidazo[1,2-a]pyridin-7-ylmethyl)-5-{1-[(3-methyloxetan-3-yl)carbonyl]pyrrolidin-3-yl}thiophene-2-carboxamide]
10 | 28.1 | 0.672 | 0.905 | O=C(NCc1ccn2ccnc2c1)c1ccc(C2CCN(C(=O)c3cc(F)cc(F)c3)C2)s1 (stereo not drawn) [Example 768, 5-[1-(3,5-difluorobenzoyl)pyrrolidin-3-yl]-N-(imidazo[1,2-a]pyridin-7-ylmethyl)thiophene-2-carboxamide]
11 | 98.4 | 0.705 | 5.26 | O=C(NCc1ccn2ccnc2c1)c1ccc(C2CCN(C(=O)C3CCCC3)C2)s1 (stereo not drawn) [Example 769, 5-[1-(cyclopentylcarbonyl)pyrrolidin-3-yl]-N-(imidazo[1,2-a]pyridin-7-ylmethyl)thiophene-2-carboxamide]
12 | 38.8 | 0.735 | 6 | O=C(NCc1ccn2ccnc2c1)c1ccc(C2CCN(C(=O)c3ccc(Cl)cc3)C2)s1 (stereo not drawn) [Example 770, 5-[1-(4-chlorobenzoyl)pyrrolidin-3-yl]-N-(imidazo[1,2-a]pyridin-7-ylmethyl)thiophene-2-carboxamide]
13 | 70.8 | 0.573 | 3.47 | Cn1cccc1C(=O)N1CCC(c2ccc(C(=O)NCc3ccn4ccnc4c3)s2)C1 (stereo not drawn) [Example 771, N-(imidazo[1,2-a]pyridin-7-ylmethyl)-5-{1-[(1-methyl-1H-pyrrol-2-yl)carbonyl]pyrrolidin-3-yl}thiophene-2-carboxamide]
14 | 61.5 | 0.828 | 2.4 | O=C(NCc1ccn2ccnc2c1)c1ccc(C2CCN(C(=O)c3ccc(F)cc3F)C2)s1 (stereo not drawn) [Example 772, 5-[1-(2,4-difluorobenzoyl)pyrrolidin-3-yl]-N-(imidazo[1,2-a]pyridin-7-ylmethyl)thiophene-2-carboxamide]
15 | 72.6 | 0.773 | 9.53 | O=C(NCc1ccn2ccnc2c1)c1ccc(C2CCN(C(=O)c3ccncc3)C2)s1 (stereo not drawn) [Example 773, N-(imidazo[1,2-a]pyridin-7-ylmethyl)-5-[1-(pyridin-4-ylcarbonyl)pyrrolidin-3-yl]thiophene-2-carboxamide]
16 | 103 | 0.46 | 7.07 | O=C(NCc1ccn2ccnc2c1)c1ccc(C2CCN(C(=O)c3ccccn3)C2)s1 (stereo not drawn) [Example 774, N-(imidazo[1,2-a]pyridin-7-ylmethyl)-5-[1-(pyridin-2-ylcarbonyl)pyrrolidin-3-yl]thiophene-2-carboxamide]
17 | 51.9 | 0.538 | 60.9 | Cn1cc(C(=O)N2CCC(c3ccc(C(=O)NCc4ccn5ccnc5c4)s3)C2)cn1 (stereo not drawn) [Example 775, N-(imidazo[1,2-a]pyridin-7-ylmethyl)-5-{1-[(1-methyl-1H-pyrazol-4-yl)carbonyl]pyrrolidin-3-yl}thiophene-2-carboxamide]
18 | 21.5 | 0.169 | 2.1 | O=C(NCc1ccn2ccnc2c1)c1ccc(C2CCN(C(=O)c3ccccc3F)C2)s1 (stereo not drawn) [Example 776, 5-[1-(2-fluorobenzoyl)pyrrolidin-3-yl]-N-(imidazo[1,2-a]pyridin-7-ylmethyl)thiophene-2-carboxamide]
19 | 39.4 | 0.92 | 1.26 | CC/C=C(\C)C(=O)N1CCC(c2ccc(C(=O)NCc3ccn4ccnc4c3)s2)C1 (stereo not drawn) [Example 777, N-(imidazo[1,2-a]pyridin-7-ylmethyl)-5-{1-[(2E)-2-methylpent-2-enoyl]pyrrolidin-3-yl}thiophene-2-carboxamide]
20 | 27.6 | 0.414 | 0.896 | Cc1cc(C(=O)N2CCC(c3ccc(C(=O)NCc4ccn5ccnc5c4)s3)C2)c(C)o1 (stereo not drawn) [Example 778, 5-{1-[(2,5-dimethylfuran-3-yl)carbonyl]pyrrolidin-3-yl}-N-(imidazo[1,2-a]pyridin-7-ylmethyl)thiophene-2-carboxamide]
21 | 14.2 | 0.603 | 0.499 | O=C(NCc1ccn2ccnc2c1)c1ccc(C2CCN(C(=O)c3cccc(Cl)c3)C2)s1 (stereo not drawn) [Example 779, 5-[1-(3-chlorobenzoyl)pyrrolidin-3-yl]-N-(imidazo[1,2-a]pyridin-7-ylmethyl)thiophene-2-carboxamide]
22 | 250 | 0.382 | 81.7 | CCC(=O)N1CCC(c2ccc(C(=O)NCc3ccn4ccnc4c3)s2)C1 (stereo not drawn) [Example 780, N-(imidazo[1,2-a]pyridin-7-ylmethyl)-5-(1-propanoylpyrrolidin-3-yl)thiophene-2-carboxamide]
